The text below walks through data of ChEMBL document CHEMBL4152310, “Design and synthesis of novel benzenesulfonamide containing 1,2,3-triazoles as potent human carbonic anhydrase isoforms I, II, IV and IX inhibitors” (Eur J Med Chem, 2018).

This assay addresses Carbonic anhydrase 9 (Homo sapiens, UniProt Q16790). Kind of assay: Binding affinity to human carbonic anhydrase 9 by stopped flow CO2 hydration assay.
The molecule `NS(=O)(=O)c1ccc(-n2cc(C(=O)c3ccco3)nn2)cc1` came in with a Ki of 217 nM. That is a sub-micromolar value.

Regarding `NS(=O)(=O)c1ccc(-n2nnc(C(=O)c3ccc(F)cc3)c2C(F)(F)F)cc1`, the Ki worked out at 38.1 nM.

Take `NS(=O)(=O)c1ccc(-n2nnc(C(=O)c3cccs3)c2C(F)(F)F)cc1`: affinity was put at a Ki of 45.4 nM.

Turning to `NS(=O)(=O)c1ccc(-n2cc(C(=O)c3ccc(Cl)cc3)nn2)cc1`, the Ki came to 27.3 nM.

Molecule `NS(=O)(=O)c1ccc(-n2cc(C(=O)c3ccc4ccccc4c3)nn2)cc1` had a Ki of 127 nM. Against the preceding molecule, the Ki is about 4.7-fold higher.

Regarding `Cc1ccc(C(=O)c2cn(-c3ccc(S(N)(=O)=O)cc3)nn2)cc1`, affinity was put at a Ki of 324 nM.

For `NS(=O)(=O)c1ccc(-n2nnc(C(=O)c3ccc4ccccc4c3)c2C(F)(F)F)cc1`, the Ki was 248 nM.

Molecule `NS(=O)(=O)c1ccc(-n2cc(C(=O)c3ccc(F)cc3)nn2)cc1` gave an inhibition constant Ki of 47.8 nM.

Take `NS(=O)(=O)c1ccc(-n2nnc(C(=O)c3ccccn3)c2C(F)(F)F)cc1`: affinity was put at a Ki of 156 nM.

Regarding `NS(=O)(=O)c1ccc(-n2nnc(C(=O)c3ccco3)c2C(F)(F)F)cc1`, the affinity corresponds to a Ki of 190 nM.

Consider `NS(=O)(=O)c1ccc(-n2nnc(C(=O)c3ccc(Br)cc3)c2C(F)(F)F)cc1`, for which affinity was put at a Ki of 35.8 nM.

For `NS(=O)(=O)c1ccc(-n2cc(C(=O)c3ccccc3)nn2)cc1`, the Ki worked out at 136 nM.

`NS(=O)(=O)c1ccc(-n2nnc(C(=O)c3ccc(Cl)cc3)c2C(F)(F)F)cc1` gave a Ki of 48.2 nM. This Ki is about 2.8-fold lower than that of the molecule before.

The molecule `NS(=O)(=O)c1ccc(-n2cc(C(=O)c3ccc(Br)cc3)nn2)cc1` yielded a Ki of 44.7 nM. The Ki values of the last two molecules are within 1.5-fold of each other.

The molecule `COc1ccc(C(=O)c2cn(-c3ccc(S(N)(=O)=O)cc3)nn2)cc1` yielded a Ki of 145 nM.

The molecule `NS(=O)(=O)c1ccc(-n2cc(C(=O)c3cccs3)nn2)cc1` yielded a Ki of 362 nM.

In the case of `COc1ccc(C(=O)c2nnn(-c3ccc(S(N)(=O)=O)cc3)c2C(F)(F)F)cc1`, the Ki is 141 nM. Compared with the last molecule, the Ki is about 2.6-fold lower.

Consider `NS(=O)(=O)c1ccc(-n2nnc(C(=O)c3ccccc3)c2C(F)(F)F)cc1`, for which the Ki worked out at 39.8 nM.

`NS(=O)(=O)c1ccc(-n2cc(C(=O)c3ccccn3)nn2)cc1` yielded an inhibitory constant (Ki) of 182 nM. This Ki is about 4.6-fold higher than that of the molecule before.

Molecule `Cc1ccc(C(=O)c2nnn(-c3ccc(S(N)(=O)=O)cc3)c2C(F)(F)F)cc1` yielded a Ki of 144 nM. The Ki values of the last two molecules are within 1.5-fold of each other.

As a reminder, the Ki is a measure of affinity in units of concentration, obtained from inhibition or displacement. Low readings indicate tighter binding, high ones weaker binding.
